Tested on: HIV-1 clinical isolates grouped by RT mutations
Experiment: Pairwise comparison of NNRTI fold change between groups of clinical isolates (Student's T-test, Bonferroni's Multiple Comparison Test)
Format: cell-based
Method: This example provides methods and compositions for identifying mutations that correlate with hypersusceptibility to a NNRTI. Resistance test vectors were constructed and used as described in Example 1. Resistance test vectors derived from patient samples or clones derived from the resistance test vector pools were tested in a resistance assay to determine accurately and quantitatively the relative EFV, DLV, or NVP resistance or susceptibility compared to the median observed resistance or susceptibility.
To identify mutations associated with NNRTI hypersusceptibility, the following analysis was performed. […] The TAMs referenced in. Table 1 include M41L, D67N, K70R, L210W, T215FY, and K219X, while the NAMs referenced include K65R, T69X, L74IV, V75X, and M184IV. Isolates without NRTI, NNRTI or PI mutations served as a wild type (WT) reference group. Further comparison groups comprised isolates with three TAMS including T215Y (+/−H208Y, +/−V118I) or three TAMS including K70R. Scatter plots and statistical tests (See FIGS. 1-6) were generated using Prism 4.0 (GraphPad, San Diego, Calif.)
In addition, a pairwise comparison between two sets of data was conducted using Bonferroni's Multiple Comparison Test using the Prism 4.0 software. The results of the comparison are presented in Tables 2, 3, and 4, appended to the end of this document. Samples with K65R, K65R+M184V, or 2 TAMs in combination with T215Y had over 40% with EFV FC<0.4.

With `Cc1ccnc2c1NC(=O)c1cccnc1N2C1CC1` [NVP, nevirapine] the “Mean Diff. of fold change” value (1 NAM vs 2 NAMs) was 0.2694, the “Mean Diff. of fold change” value (1 NAM vs 3 NAMs) was 0.221 and the “Mean Diff. of fold change” value (1 NAM vs K65R) was 0.3361. The “Mean Diff. of fold change” value (1 NAM vs K65R + M184V) was 0.3786, the “Mean Diff. of fold change” value (1 NAM vs K70R_3_TAMs) was 0.08835 and the “Mean Diff. of fold change” value (1 NAM vs M184V) was −0.01357. For the same molecule, the “Mean Diff. of fold change” value (1 NAM vs T69) was −0.03843, the “Mean Diff. of fold change” value (1 NAM vs T215Y_3_TAMs) was 0.211 and the “Mean Diff. of fold change” value (1 NAM vs T215Y_3_TAMs_118) was 0.2013. For the same molecule, the “Mean Diff. of fold change” value (1 NAM vs T215Y_3_TAMs_208) was 0.2552, the “Mean Diff. of fold change” value (1 NAM vs T215Y_3_TAMs_no118) was 0.2175 and the “Mean Diff. of fold change” value (1 NAM vs T215Y_3_TAMs_no208) was 0.204. For the same molecule, the “Mean Diff. of fold change” value (2 NAMs vs 3 NAMs) was −0.04846, the “Mean Diff. of fold change” value (2 NAMs vs K65R) was 0.06669 and the “Mean Diff. of fold change” value (2 NAMs vs K65R + M184V) was 0.1092. The “Mean Diff. of fold change” value (2 NAMs vs K70R_3_TAMs) was −0.1811, the “Mean Diff. of fold change” value (2 NAMs vs M184V) was −0.283 and the “Mean Diff. of fold change” value (2 NAMs vs T69) was −0.3079. For the same molecule, the “Mean Diff. of fold change” value (2 NAMs vs T215Y_3_TAMs) was −0.05842, the “Mean Diff. of fold change” value (2 NAMs vs T215Y_3_TAMs_118) was −0.06817 and the “Mean Diff. of fold change” value (2 NAMs vs T215Y_3_TAMs_208) was −0.01419. The “Mean Diff. of fold change” value (2 NAMs vs T215Y_3_TAMs_no118) was −0.05192, the “Mean Diff. of fold change” value (2 NAMs vs T215Y_3_TAMs_no208) was −0.06547 and the “Mean Diff. of fold change” value (3 NAMs vs K65R) was 0.1151. For the same molecule, the “Mean Diff. of fold change” value (3 NAMs vs K65R + M184V) was 0.1577, the “Mean Diff. of fold change” value (3 NAMs vs K70R_3_TAMs) was −0.1326 and the “Mean Diff. of fold change” value (3 NAMs vs M184V) was −0.2345. The “Mean Diff. of fold change” value (3 NAMs vs T69) was −0.2594, the “Mean Diff. of fold change” value (3 NAMs vs T215Y_3_TAMs) was −0.009962 and the “Mean Diff. of fold change” value (3 NAMs vs T215Y_3_TAMs_118) was −0.01971. The “Mean Diff. of fold change” value (3 NAMs vs T215Y_3_TAMs_208) was 0.03427, the “Mean Diff. of fold change” value (3 NAMs vs T215Y_3_TAMs_no118) was −0.003462 and the “Mean Diff. of fold change” value (3 NAMs vs T215Y_3_TAMs_no208) was −0.01701. The “Mean Diff. of fold change” value (K65R + M184V vs K70R_3_TAMs) was −0.2903, the “Mean Diff. of fold change” value (K65R + M184V vs T215Y_3_TAMs) was −0.1676 and the “Mean Diff. of fold change” value (K65R + M184V vs T215Y_3_TAMs_118) was −0.1774. The “Mean Diff. of fold change” value (K65R + M184V vs T215Y_3_TAMs_208) was −0.1234, the “Mean Diff. of fold change” value (K65R + M184V vs T215Y_3_TAMs_no118) was −0.1611 and the “Mean Diff. of fold change” value (K65R + M184V vs T215Y_3_TAMs_no208) was −0.1747. The “Mean Diff. of fold change” value (K65R vs K65R + M184V) was 0.04252, the “Mean Diff. of fold change” value (K65R vs K70R_3_TAMs) was −0.2478 and the “Mean Diff. of fold change” value (K65R vs M184V) was −0.3497. The “Mean Diff. of fold change” value (K65R vs T69) was −0.3746, the “Mean Diff. of fold change” value (K65R vs T215Y_3_TAMs) was −0.1251 and the “Mean Diff. of fold change” value (K65R vs T215Y_3_TAMs_118) was −0.1349. For the same molecule, the “Mean Diff. of fold change” value (K65R vs T215Y_3_TAMs_208) was −0.08088, the “Mean Diff. of fold change” value (K65R vs T215Y_3_TAMs_no118) was −0.1186 and the “Mean Diff. of fold change” value (K65R vs T215Y_3_TAMs_no208) was −0.1322. For the same molecule, the “Mean Diff. of fold change” value (K70R_3_TAMs vs T215Y_3_TAMs_118) was 0.1129, the “Mean Diff. of fold change” value (K70R_3_TAMs vs T215Y_3_TAMs_no118) was 0.1292 and the “Mean Diff. of fold change” value (M184V vs K65R + M184V) was 0.3922. For the same molecule, the “Mean Diff. of fold change” value (M184V vs K70R_3_TAMs) was 0.1019, the “Mean Diff. of fold change” value (M184V vs T69) was −0.02486 and the “Mean Diff. of fold change” value (M184V vs T215Y_3_TAMs) was 0.2246. The “Mean Diff. of fold change” value (M184V vs T215Y_3_TAMs_118) was 0.2148, the “Mean Diff. of fold change” value (M184V vs T215Y_3_TAMs_208) was 0.2688 and the “Mean Diff. of fold change” value (M184V vs T215Y_3_TAMs_no118) was 0.2311. The “Mean Diff. of fold change” value (M184V vs T215Y_3_TAMs_no208) was 0.2175, the “Mean Diff. of fold change” value (T69 vs K65R + M184V) was 0.4171 and the “Mean Diff. of fold change” value (T69 vs K70R_3_TAMs) was 0.1268. For the same molecule, the “Mean Diff. of fold change” value (T69 vs T215Y_3_TAMs) was 0.2494, the “Mean Diff. of fold change” value (T69 vs T215Y_3_TAMs_118) was 0.2397 and the “Mean Diff. of fold change” value (T69 vs T215Y_3_TAMs_208) was 0.2937. The “Mean Diff. of fold change” value (T69 vs T215Y_3_TAMs_no118) was 0.2559, the “Mean Diff. of fold change” value (T69 vs T215Y_3_TAMs_no208) was 0.2424 and the “Mean Diff. of fold change” value (T215Y_3_TAMs vs K70R_3_TAMs) was −0.1227. The “Mean Diff. of fold change” value (T215Y_3_TAMs vs T215Y_3_TAMs_118) was −0.00975, the “Mean Diff. of fold change” value (T215Y_3_TAMs vs T215Y_3_TAMs_208) was 0.04423 and the “Mean Diff. of fold change” value (T215Y_3_TAMs vs T215Y_3_TAMs_no118) was 0.0065. The “Mean Diff. of fold change” value (T215Y_3_TAMs vs T215Y_3_TAMs_no208) was −0.007051, the “Mean Diff. of fold change” value (T215Y_3_TAMs_208 vs K70R_3_TAMs) was −0.1669 and the “Mean Diff. of fold change” value (T215Y_3_TAMs_208 vs T215Y_3_TAMs_118) was −0.05398. For the same molecule, the “Mean Diff. of fold change” value (T215Y_3_TAMs_208 vs T215Y_3_TAMs_no118) was −0.03773, the “Mean Diff. of fold change” value (T215Y_3_TAMs_208 vs T215Y_3_TAMs_no208) was −0.05128 and the “Mean Diff. of fold change” value (T215Y_3_TAMs_no118 vs T215Y_3_TAMs_118) was −0.01625. For the same molecule, the “Mean Diff. of fold change” value (T215Y_3_TAMs_no208 vs K70R_3_TAMs) was −0.1156, the “Mean Diff. of fold change” value (T215Y_3_TAMs_no208 vs T215Y_3_TAMs_118) was −0.002699 and the “Mean Diff. of fold change” value (T215Y_3_TAMs_no208 vs T215Y_3_TAMs_no118) was 0.01355. For the same molecule, the “mean fold change (FC) compared to the WT population” value (all groups containing NAMs or the combination of TAMs shown in Table 1, p<0.0001, Student's T-test) was “significantly lower”, the “Mean Diff. of fold change” value (wt vs 1 NAM) was 0.1982 and the “Mean Diff. of fold change” value (wt vs 2 NAMs) was 0.4677. For the same molecule, the “Mean Diff. of fold change” value (wt vs 3 NAMs) was 0.4192, the “Mean Diff. of fold change” value (wt vs K65R) was 0.5344 and the “Mean Diff. of fold change” value (wt vs K65R + M184V) was 0.5769. For the same molecule, the “Mean Diff. of fold change” value (wt vs K70R_3_TAMs) was 0.2866, the “Mean Diff. of fold change” value (wt vs M184V) was 0.1847 and the “Mean Diff. of fold change” value (wt vs T69) was 0.1598. The “Mean Diff. of fold change” value (wt vs T215Y_3_TAMs) was 0.4092, the “Mean Diff. of fold change” value (wt vs T215Y_3_TAMs_118) was 0.3995 and the “Mean Diff. of fold change” value (wt vs T215Y_3_TAMs_208) was 0.4535. For the same molecule, the “Mean Diff. of fold change” value (wt vs T215Y_3_TAMs_no118) was 0.4157 and the “Mean Diff. of fold change” value (wt vs T215Y_3_TAMs_no208) was 0.4022.

From US10202658B2, “Methods for determining hypersusceptibility of HIV-1 to non-nucleoside reverse transcriptase inhibitors” (Monogram Biosciences, Inc., priority 2005, dated 2019)
